{
  "source": "patent US20230330060A1",
  "about": "“COMPOUNDS FOR TREATMENT OF HEART FAILURE” (Sulfateq B.V., priority 2020, published 2023)",
  "key": {"[1]": {"tested_on": "doxorubicin-induced heart failure", "experiment": "Cardiac fibrosis (picrosirius red, left-ventricular interstitial fibrosis)", "format": "in vivo, rat", "conditions": "doxorubicin rats; SUL-150 via food pellets, prophylaxis or therapeutic group", "protocol": "The SUL-150 solution was sprayed homogeneously over standard food pellets (1.25 kg). […] Food pellets were freshly prepared weekly. With the approximation of 200 mg·kg^-1 SUL-150 in the food pellets and a daily dietary intake of 25 gram for a 350 gram rat, daily dosing of SUL-150 approximates 5 mg·day^-1. Male outbred Wistar rats of 250-300 grams (10-12 weeks old) were kept on a 12 h light/dark cycle and received a standard diet with distilled water ad libitum. Thirty rats were administered with doxorubicin (2 mg·kg^-1) weekly via intraperitoneal injection for 9 consecutive weeks and were left either untreated (standard chow diet, 10 rats), or received a diet supplemented with SUL-150 as prophylaxis (prior to the 1st doxorubicin administration, 10 rats) or therapy (starting after the 6th doxorubicin administration, 10 rats). Sham control rats (8 rats) were administered with saline weekly via intraperitoneal injection for 9 consecutive weeks and received a standard diet. All rats were subjected to cardiac function assessment 12 weeks after the first doxorubicin administration. […] Samples were imaged on a NanoZoomer S60 Digital slide scanner (Hammamatsu Photonics) and left-ventricular interstitial fibrosis (i.e. non-perivascular fibrosis) was quantified using Aperio ImageScope (Leica Biosystems, Nussloch, Germany)."}, "[2]": {"tested_on": "doxorubicin-induced heart failure", "experiment": "Cardiac oxidative stress: lipid peroxidation (TBARS)", "format": "in vivo, rat", "conditions": "doxorubicin rats; SUL-150 in prophylaxis or therapeutic regime", "protocol": "(§1) The SUL-150 solution was sprayed homogeneously over standard food pellets (1.25 kg). […] Food pellets were freshly prepared weekly. With the approximation of 200 mg·kg^−1 SUL-150 in the food pellets and a daily dietary intake of 25 gram for a 350 gram rat, daily dosing of SUL-150 approximates 5 mg·day^−1. Male outbred Wistar rats of 250-300 grams (10-12 weeks old) were kept on a 12 h light/dark cycle and received a standard diet with distilled water ad libitum. Thirty rats were administered with doxorubicin (2 mg·kg^−1) weekly via intraperitoneal injection for 9 consecutive weeks and were left either untreated (standard chow diet, 10 rats), or received a diet supplemented with SUL-150 as prophylaxis (prior to the 1st doxorubicin administration, 10 rats) or therapy (starting after the 6th doxorubicin administration, 10 rats). Sham control rats (8 rats) were administered with saline weekly via intraperitoneal injection for 9 consecutive weeks and received a standard diet. All rats were subjected to cardiac function assessment 12 weeks after the first doxorubicin administration. Cardiac tissue samples were homogenized in ddH2O using a TissueRuptor II (Qiagen, Hilden, Germany) followed by sonication at 20 kHz for 3×1 min (Sonopuls 2000, Bandelin, Berlin, Germany) and centrifugation at 14000 g to pellet insoluble proteins. […]"}, "[3]": {"tested_on": "doxorubicin-induced heart failure", "experiment": "Cardiac radical scavenging activity (ABTS-radical decolorization)", "format": "in vivo, rat", "conditions": "doxorubicin rats; prophylactic or therapeutic administration of SUL-150", "protocol": "as §1"}, "[4]": {"tested_on": "doxorubicin-induced heart failure", "experiment": "Cardiac ATP/ADP ratio (HPLC)", "format": "in vivo, rat", "conditions": "doxorubicin rats; prophylactic or therapeutic administration of SUL-150", "protocol": "(§2) SUL-150 (250 mg) was dissolved in 100% EtOH (1.02 ml) and further diluted in distilled water (68.7 ml) to obtain a clear 10 mM solution. The SUL-150 solution was sprayed homogeneously over standard food pellets (1.25 kg). Food pellets were air-dried overnight. Food pellets were freshly prepared weekly. With the approximation of 200 mg·kg^−1 SUL-150 in the food pellets and a daily dietary intake of 25 gram for a 350 gram rat, daily dosing of SUL-150 approximates 5 mg·day^−1.\n(§3) Male outbred Wistar rats of 250-300 grams (10-12 weeks old) were kept on a 12 h light/dark cycle and received a standard diet with distilled water ad libitum. Thirty rats were administered with doxorubicin (2 mg·kg^−1) weekly via intraperitoneal injection for 9 consecutive weeks and were left either untreated (standard chow diet, 10 rats), or received a diet supplemented with SUL-150 as prophylaxis (prior to the 1st doxorubicin administration, 10 rats) or therapy (starting after the 6th doxorubicin administration, 10 rats). […]\nCardiac tissue samples were homogenized in Tris-saturated phenol (pH 7.4) using a TissueRuptor II (Qiagen, Hilden, Germany) to extract adenosines and separated over chloroform:water (1:1 v/v) by centrifugation. […] The eluted nucleotides were detected at a wavelength of 260 nm. Nucleotide concentration of the eluate was calculated using calibration curves for each standard nucleotide peak area. […]"}, "[5]": {"tested_on": "doxorubicin-induced heart failure", "experiment": "Cardiac mitochondrial (mtDNA) copy number", "format": "in vivo, rat", "conditions": "doxorubicin rats; administration of SUL-150", "protocol": "as §2\nas §3, with “rats). Sham control rats (8 rats) were administered with saline weekly via intraperitoneal injection for 9 consecutive weeks and received a standard diet.” for “rats).”\nCardiac tissue samples were homogenized in lysis buffer (100 mM NaCl, 10 mM EDTA, 0.5% SDS in 20 mM Tris-HCl, pH 7.4) containing 50 U·ml^−1 RNase I and 100 U·ml^−1 proteinase K (both ThermoFisher, Walthham, MA). […] MtDNA copy number was calculated as: […]"}, "[6]": {"tested_on": "mitochondrial complex IV (cytochrome c oxidase)", "experiment": "Respiratory complex IV activity in mitochondria isolated from H9C2 cardiomyoblasts", "format": "cell-based, rat", "protocol": "H9C2 cardiomyoblasts were exposed to 1 μM DOX in the presence or absence of 1 μM SUL-150 under standard cell culture conditions for 24 h. Mitochondria were isolated using density gradient centrifugation using the MitoCheck® Mitochondrial Isolation Kit (Cayman Chemical #701010, Ann Arbor, MI) according to manufacturer's instructions and assessed for the activity of mitochondrial complex IV (cytochrome c oxidase) by measuring the rate of oxidation of cytochrome c, which is reflected by an […] in absorbance at 550 nm (Cayman Chemical #700990, Ann Arbor, MI)."}},
  "data": [
    {"compound": "Cc1c(C)c2c(c(C)c1O)CC[C@](C)(C(=O)N1CCNCC1)O2", "note": "[SUL-150, (R)-(6-hydroxy-2,5,7,8-tetramethylchroman-2-yl)(piperazin-1-yl)methanone]", "values": [
      {"measurement": "Fibrogenic response in the left ventricle interstitium (collagen deposition), FIG. 4", "setting": "[1]", "result": "blocks this fibrogenic reaction"},
      {"measurement": "Cardiac lipid peroxidation products (TBARS), FIG. 5A", "setting": "[2]", "result": "mitigates cardiac lipid peroxidation"},
      {"measurement": "Cardiac radical scavenging activity, FIG. 5B", "setting": "[3]", "result": "remained unaltered"},
      {"measurement": "Doxorubicin-induced reduction of cardiac ATP content (normalized for ADP), FIG. 6A", "setting": "[4]", "result": "mitigated"},
      {"measurement": "Doxorubicin-induced reduction of cardiac mtDNA copy number, FIG. 6B", "setting": "[5]", "result": "precluded"},
      {"measurement": "Respiratory complex IV activity, FIG. 7", "setting": "[6]; H9C2 cardiomyoblasts co-incubated with doxorubicin and SUL-150, both 1 μM for 24 h", "result": "maintains complex IV activity"},
      {"measurement": "Respiratory complex IV activity", "setting": "[6]; untreated control H9C2 cardiomyoblasts, SUL-150 1 μM for 24 h", "result": "does not alter the activity of respiratory complex IV"}
    ]}
  ]
}
